Measured values published in PMC8699473, “An Easily Expandable Multi-Drug LC-MS Assay for the Simultaneous Quantification of 57 Oral Antitumor Drugs in Human Plasma” (Cancers, 2021).

Assay: Long-term stability in spiked pooled human plasma

Row | Compound | Long-term stability, 1 month, -20°C Accuracy [%] (validation standard 2xLLOV) | Long-term stability, 1 month, -80°C Accuracy [%] (validation standard 2xLLOV) | Long-term stability, 2 month, -20°C Accuracy [%] (validation standard 2xLLOV) | Long-term stability, 2 month, -80°C Accuracy [%] (validation standard 2xLLOV) | Long-term stability, 3 month, -20°C Accuracy [%] (validation standard 2xLLOV) | Long-term stability, 3 month, -80°C Accuracy [%] (validation standard 2xLLOV) | Long-term stability, 6 weeks, 4°C, without daylight Accuracy [%] (validation standard 2xLLOV) | Long-term stability, 1 month, -20°C Accuracy [%] (validation standard LLOV) | Long-term stability, 1 month, -80°C Accuracy [%] (validation standard LLOV) | Long-term stability, 2 month, -20°C Accuracy [%] (validation standard LLOV) | Long-term stability, 2 month, -80°C Accuracy [%] (validation standard LLOV) | Long-term stability, 3 month, -20°C Accuracy [%] (validation standard LLOV) | Long-term stability, 3 month, -80°C Accuracy [%] (validation standard LLOV) | Long-term stability, 1 month, -20°C Accuracy [%] (validation standard MOV) | Long-term stability, 1 month, -80°C Accuracy [%] (validation standard MOV) | Long-term stability, 2 month, -20°C Accuracy [%] (validation standard MOV) | Long-term stability, 2 month, -80°C Accuracy [%] (validation standard MOV) | Long-term stability, 3 month, -20°C Accuracy [%] (validation standard MOV) | Long-term stability, 3 month, -80°C Accuracy [%] (validation standard MOV) | Long-term stability, 6 weeks, 4°C, without daylight Accuracy [%] (validation standard MOV) | other results
1 | CO[C@@H]1[C@H](N(C)C(=O)c2ccccc2)C[C@H]2O[C@]1(C)n1c3ccccc3c3c4c(c5c6ccccc6n2c5c31)C(=O)NC4 [Midostaurin] | 105.5 | 106.8 | 106.0 | 108.5 | 97.1 | 106.8 | 94.2 | 109.4 | 106.4 | 106.5 | 101.2 | 102.8 | 112.8 | 105.8 | 108.1 | 113.7 | 116.3 | 102.0 | 102.9 | 103.5 | Long-term stability, 6 weeks, 4°C, without daylight Accuracy [%] (validation standard LLOV): 102.3%; Long-term stability, 1 month, -20°C Accuracy [%] (validation standard ULOV): 107.3%; Long-term stability, 1 month, -80°C Accuracy [%] (validation standard ULOV): 103.4%; Long-term stability, 2 month, -20°C Accuracy [%] (validation standard ULOV): 118.6%; Long-term stability, 2 month, -80°C Accuracy [%] (validation standard ULOV): 111.4%; Long-term stability, 3 month, -20°C Accuracy [%] (validation standard ULOV): 93.8%; Long-term stability, 3 month, -80°C Accuracy [%] (validation standard ULOV): 107.0%; Long-term stability, 6 weeks, 4°C, without daylight Accuracy [%] (validation standard ULOV): 97.3%
2 | CCOc1cc2ncc(C#N)c(Nc3ccc(OCc4ccccn4)c(Cl)c3)c2cc1NC(=O)/C=C/CN(C)C [Neratinib] | 79.9 | 84.9 | 67.5 | 94.6 | 70.3 | 90.2 | 7.4 | 66.9 | 71.8 | 77.1 | 88.3 | 50.3 | 81.4 | 82.9 | 84.6 | 81.2 | 92.9 | 79.5 | 92.5 | 10.0 | Long-term stability, 1 month, -20°C Accuracy [%] (validation standard ULOV): 79.7%; Long-term stability, 1 month, -80°C Accuracy [%] (validation standard ULOV): 78.2%; Long-term stability, 2 month, -20°C Accuracy [%] (validation standard ULOV): 82.8%; Long-term stability, 2 month, -80°C Accuracy [%] (validation standard ULOV): 88.3%; Long-term stability, 3 month, -20°C Accuracy [%] (validation standard ULOV): 75.5%; Long-term stability, 3 month, -80°C Accuracy [%] (validation standard ULOV): 91.8%; Long-term stability, 6 weeks, 4°C, without daylight Accuracy [%] (validation standard ULOV): 8.5%
3 | C=CC(=O)Nc1cc(Nc2nccc(-c3cn(C)c4ccccc34)n2)c(OC)cc1N(C)CCN(C)C [Osimertinib] | 95.2 | 93.2 | 89.2 | 103.9 | 82.8 | 100.0 | 10.5 | 83.0 | 86.9 | 84.8 | 96.9 | 66.7 | 91.8 | 97.0 | 96.6 | 95.2 | 101.6 | 90.9 | 101.8 | 53.4 | Long-term stability, 6 weeks, 4°C, without daylight Accuracy [%] (validation standard LLOV): 5.4%; Long-term stability, 1 month, -20°C Accuracy [%] (validation standard ULOV): 92.3%; Long-term stability, 1 month, -80°C Accuracy [%] (validation standard ULOV): 93.2%; Long-term stability, 2 month, -20°C Accuracy [%] (validation standard ULOV): 91.4%; Long-term stability, 2 month, -80°C Accuracy [%] (validation standard ULOV): 101.4%; Long-term stability, 3 month, -20°C Accuracy [%] (validation standard ULOV): 88.6%; Long-term stability, 3 month, -80°C Accuracy [%] (validation standard ULOV): 93.8%; Long-term stability, 6 weeks, 4°C, without daylight Accuracy [%] (validation standard ULOV): 41.5%
